Assay results as given in US9101138B2, “Methods and compositions utilizing lactams derived from camphor, verbenone or cat thyme oil for repelling blood-sucking and biting insects, ticks and mites” (The United States of America, as represented by the …, priority 2013, dated 2015).

Experiments:
Assay type in all cases: in vivo
[1] = test system: adult lone star ticks, Amblyomma americanum; assay: Tick repellency: vertical filter paper bioassay; details: for % repelled: ticks exposed 10-15 minutes after application
Experimental: Tick repellency: Vertical filter paper bioassay against adult lone star ticks, Amblyomma americanum, and nymphs was conducted with selected lactams, lactones and ketones. Adult ticks were exposed 10-15 minutes after application of the candidate compounds. Repellency was measured in % repelled from the treated surface at various concentrations.

Aedes aegypti females = assay: Feeding deterrency assay utilising K&D module; details: 25 nmol\cm^2
Experimental: Feeding Deterrency assay utilising K&D module (Klun, J. A., and M. Debboun, J. Med. Entomol., 37: 177-181 (2000); Klun, J. A., et al., 40: 293-299 (2003)): Test compounds were bioassayed for their feeding deterrency against Aedes aegypti females in K&D module assay. […] Feeding deterrency was evaluated as proportion feeding. Ethanol was used as control.

[2] = test system: Sand Fly (Phlebotomus papatasi); assay: Sand fly blood-feeding assay for testing repellents and feeding deterrents; details: 2 h; for Mean % Feeding / Mean % Inhibition: n = 3; for effectiveness (comparison between compounds): sand fly blood feeding
Text: Sand Fly (Phlebotomus papatasi) blood-feeding assay for testing repellents and feeding deterrents: A pig intestine-based membrane feeing system (Watnaporn, D., et al., Proceedings of VIIIth Sir Dorabjee Tata International Symposium: Arthropod born viral infections-Current status and research, Pages 417-424, 2008) has been used for blood-feeding of female sand flies in colony maintenance. The same technique has been used for testing repellency and antifeeding effects of several new compounds. A circular area of the fabric mesh on top of the test container that matches the size of the glass feeder was treated with the test compound by applying the test solution using a Q-tip. After a group of 30 females and 15 males was placed into the test container, a glass feeder filled with cow blood was placed on top of the treated area in the center of the fabric mesh that was secured on top of the container. Sand flies were allowed to feed for 2 h before the number of blood-fed females was in each feeding container counted.
Female sand flies in the untreated control achieved a 32% to 61% blood feeding rate during the test period (2 h) when a group of 30 females and 15 males was placed in a feeding pot and fed through a fine mesh screen using an artificial membrane feeding system (Table 1 [?]).

Aedes aegypti = assay: Free choice assay against mosquitoes (feeding deterrence assay in glove box); details: treated membrane over human blood, 20 min; for EC50: median effective dose to repel 50% of mosquitoes
Experimental: Free Choice Assay against mosquitoes (compact repellency): Mosquitoes used were nulliparous female Aedes aegypti (Red eye Liverpool strain). They were laboratory-reared and maintained at 27° C. and 80% RH under a photoperiod of 12:12 (L:D) h by using standard mosquito rearing procedures (Rutledge, C. C., et al., J. Med. Entomol., 14: 536-541 (1978)). Larvae were fed a diet of ground tropical fish flakes and adults were fed a 10% sucrose solution. Adult female mosquitoes used for experimentation were between 5 and 15 d old and starved (provided only water) for 24 h before testing. The test system consisted of a mosquito blood-feeder, a constant-temperature water circulator (to maintain the temperature of the blood at 37° C.) and a specially designed cage. The mosquito blood-feeder contained five circular blood reservoirs, each of which was filled with outdated human blood titrated with adenosine triphosphate. The wells were then covered with sausage membrane and secured using high vacuum grease. Absolute ethanol was used as a solvent and diluent for candidate repellents. Each diluted repellent solution was then randomly applied to the membrane surface at concentrations of 0.02, 0.04, 0.08 and 0.16 mg/cm^2. A separate membrane covered well served as a control. 250 mosquitoes were exposed to the treated membranes on the blood reservoirs ad libitum by opening the sliding door in the floor of the test cage. The number of mosquitoes feeding on each well was counted and noted at two-minute intervals for 20 minutes using the total number of feeding mosquitoes as a response. Each test was replicated for a minimum of four times to obtain a statistically valid sample size for analysis. The median effective dose to repel 50% of the mosquito test population was then calculated by the method of Goldstein (Goldstein, A., et al., 1974. Principles of Drug Action: The Basis of Pharmacology, 2nd ed., John Wiley and Sons, New York, N.Y., 854 p) (chemical sensitivity levels calculated from the dose-response regression equation) for single curves with graded responses. Significant differences were then determined by comparing the 95% confidence level among effective doses.

Molecule	% repelled ([1]; Conc. 125 ug) [%]	% repelled ([1]; Conc. 500 ug) [%]	% repelled ([1]; Conc. 2000 ug) [%]	% not biting (Aedes aegypti females) [%]	mean bites\6 (Aedes aegypti females)	total Bites\120 (Aedes aegypti females)	Mean % Feeding ([2]; concentration 0.001%) [%]	Mean % Inhibition ([2]; concentration 0.001%) [%]	Mean % Feeding ([2]; concentration 0.01%) [%]	Mean % Inhibition ([2]; concentration 0.01%) [%]	EC50 (Aedes aegypti) [mg/cm^2]	EC95 (Aedes aegypti) [mg/cm^2]	further results
CC(C)=CCCC(C)C1C=CC(=O)CC1 (centres unmarked) [Compound 7a, 4-(1,5-Dimethylhex-4-enyl)cyclohex-2-en-1-one]	73.3	96.7	82.5	–	–	–	–	–	–	–	–	–	% repelled ([1]; Conc. 31 ug): 20%; % repelled ([1]; Conc. 63 ug): 53.3%; lowest concentration at which adult ticks were repelled ([1]; filter paper bioassay): 31 µg
CCN(CC)C(=O)c1cccc(C)c1 [DEET, N,N-diethyl-m-toluamide, reference compound]	5	68.3	95.7	94	0.4	8	–	–	–	–	–	–	repellency ([1]; at 125 and 64 ug concentrations): failed to repel ticks
C=C1C(=O)OC[C@H]2[C@@H]1CC[C@@H]2C [Compound 6, Dolicho lactone (D)]	–	–	–	87	0.8	16	–	–	–	–	–	–	–
C=C1CN(CCC)C(=O)C2C(C)CCC12 (centres unmarked) [Compound 3a, N-propyl dolicho-C-lactam]	83.6	100	100	98	0.15	3	25.6	65.1	17.8	75.8	0.0317	0.117	% repelled ([1]; Conc. 63 ug): 20%; Mean % Feeding ([2]; concentration 0.02%): 8.9%; Mean % Inhibition ([2]; concentration 0.02%): 87.9%; Mean % Feeding ([2]; concentration 0.04%): 5.6%; Mean % Inhibition ([2]; concentration 0.04%): 92.4%; effectiveness (comparison between compounds) [2]: more effective than dolicholactam
C=C1COC(=O)[C@H]2[C@@H]1CC[C@@H]2C [Compound 5, Dolicholactone (C)]	–	–	–	89	0.7	14	–	–	–	–	–	–	–
CCCN1CC2CCC(C)(C1=O)C2(C)C (centres unmarked) [Compound 1a, N-propyl camphor lactam]	26.7	100	93.3	96	0.25	5	1.1	98.5	0.0	100.0	0.0282	0.102	Mean % Feeding ([2]; concentration 0.00001%): 5.6%; Mean % Inhibition ([2]; concentration 0.00001%): 92.4%; Mean % Feeding ([2]; concentration 0.0001%): 6.7%; Mean % Inhibition ([2]; concentration 0.0001%): 90.9%
C=C1CNC(=O)C2C(C)CCC12 (centres unmarked) [Compound 3, Dolicho (C) lactam]	–	–	–	92	0.5	10	–	–	–	–	0.0322	0.173	effectiveness (comparison between compounds) [2]: more effective than dolicholactone
N-propyl dihydro verbenone lactam [Compound 2a]	–	–	–	92	0.5	10	–	–	–	–	0.0561	0.264	–
CC12CCC(CNC1=O)C2(C)C (centres unmarked) [Compound 1, Camphor lactam]	26.7	66.7	73.3	91	0.55	11	2.2	97.0	0.0	100.0	0.0355	0.166	Mean % Feeding ([2]; concentration 0.00001%): 6.7%; Mean % Inhibition ([2]; concentration 0.00001%): 90.9%; Mean % Feeding ([2]; concentration 0.0001%): 3.3%; Mean % Inhibition ([2]; concentration 0.0001%): 95.5%
